Reference: patent US8530652B2, “Pyrrolopyrazoles, potent kinase inhibitors” (Agouron Pharmaceuticals, Inc., priority 2005, dated 2013)
Where two headings read alike, the source gives them in different places.

Key:
[1] = target: PAK4 kinase domain (PAK4 KD) (Homo sapiens (Human), UniProt O96013); test: PAK4 kinase domain enzymatic assay (coupled PK/LDH, NADH absorbance at 340 nm); type: biochemical
[2] = target: PAK4 kinase activity in whole cells (TR-293-KDG, modified HEK 293 overexpressing GEF-H1b and PAK4 KD) (Homo sapiens (Human), UniProt O96013); test: PAK4 cellular assay: sandwich ELISA of PAK4-dependent phosphorylation of GEF-H1b in TR-293-KDG cells; type: cell-based; conditions: doxycycline-induced, 3-hour exposure, phospho-GEF-H1b ELISA
PAK4 kinase activity in whole cells (TR-293-KDG, modified HEK 293 overexpressing GEF-H1b and PAK4 KD), sequence (O96013 321-572): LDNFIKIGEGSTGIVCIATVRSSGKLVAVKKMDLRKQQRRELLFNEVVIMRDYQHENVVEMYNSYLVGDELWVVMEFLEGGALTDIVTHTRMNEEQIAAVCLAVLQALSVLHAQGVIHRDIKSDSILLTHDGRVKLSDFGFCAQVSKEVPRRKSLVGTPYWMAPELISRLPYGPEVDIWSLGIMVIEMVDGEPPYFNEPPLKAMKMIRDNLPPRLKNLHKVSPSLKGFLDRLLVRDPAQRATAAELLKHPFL
Text: A sandwich ELISA method was used to measure the PAK4 kinase activity in whole cells. The level of PAK4-dependent phosphorylation of GEF-H1b can be determined by monitoring the binding of a phosphospecific antibody to GEF-H1b. A modified HEK 293 cell line is used in the bioassay and it has been engineered to overexpress both GEF-H1b and the kinase domain (KD) of PAK4. The KD of PAK4 is inducible in this cell line by tetracycline (Trex system, Invitrogen). The name of this cell line has been designated TR-293-KDG. To establish a phosphorylation event on GEF-H1, cells are induced with doxycycline to express the PAK4 KD. […] Candidate substance effect is measured as the ability to block this phosphorylation event.
ELISA plate was prepared by pre-coating the plates with a capture antibody (α-HA-tag mouse monoclonal antibody), blocked with BSA, and washed in 0.1% tween 20 in tris-buffered saline (TBST). Tissue culture plates (precoated with poly-D-lysine) were seeded with TR-293-KDG cells. The TR-293-KDG Cells were induced to express the PAK4 KD with doxycycline overnight and subsequently & concomitantly treated with candidate substances or diluent for an additional 3-hour, continuous exposure. Cells were then lysed with a modified RIPA buffer supplemented with protease inhibitors. The fresh whole cell lysates were then added to the ELISA plate for 2-hours. Between all subsequent steps plates were washed 4 times with TBST. Detection antibody (recognizing the phospho-specific eptitope on GEF-H1b) was added for 1 hour, followed by addition of an enzyme linked goat α-rabbit secondary antibody for 45 minutes. […] EC50 values were calculated by sigmoid curve fitting using a four-parameter analysis.

[3] = PAK4 kinase domain, 25 nM PAK4 KD, 0.04 mM ATP, pH 7.5

PAK4 kinase domain (PAK4 KD), sequence (O96013 321-572): as above

| SMILES | Ki [1, 3] | EC50 [2] | Ki [1] |
| --- | --- | --- | --- |
| Cc1ncnc(Nc2n[nH]c3c2CN(C(=O)N[C@H](CN(C)C)c2ccccc2)C3(C)C)c1F [Example 56, N-[(1S)-2-(dimethylamino)-1-phenylethyl]-3-[(5-fluoro-6-methylpyrimidin-4-yl)amino]-6,6-dimethyl-4,6-dihydropyrrolo[3,4-c]pyrazole-5(1H)-carboxamide] | 240 nM | 570 nM |  |
| CC1(C)c2[nH]nc(Nc3ncnc4sccc34)c2CN1C(=O)N[C@@H]1C[C@H]1c1ccccc1 (relative stereo) [Example 42, 6,6-dimethyl-N-[trans-2-phenylcyclopropyl]-3-(thieno[2,3-d]pyrimidin-4-ylamino)-4,6-dihydropyrrolo[3,4-c]pyrazole-5(1H)-carboxamide] | 94 nM | 610 nM |  |
| CC1(C)c2[nH]nc(Nc3ncnc4ccoc34)c2CN1C(=O)N[C@H]1C[C@@H]1c1ccccc1 (relative stereo) [Example 53, 3-(furo[3,2-d]pyrimidin-4-ylamino)-6,6-dimethyl-N-(trans-2-phenylcyclopropyl)-4,6-dihydropyrrolo[3,4-c]pyrazole-5(1H)-carboxamide] | 67 nM | 1740 nM |  |
| COc1nc(Nc2n[nH]c3c2CN(C(=O)NC2C[C@@H]2c2ccccc2)C3(C)C)nc(N2CCC[C@H]2CO)n1 (stereo partly drawn) [Example 16, 3-({4-[(2S)-2-(hydroxymethyl)pyrrolidin-1-yl]-6-methoxy-1,3,5-triazin-2-yl}amino)-6,6-dimethyl-N-[trans-2-phenylcyclopropyl]-4,6-dihydropyrrolo[3,4-c]pyrazole-5(1H)-carboxamide] | 76 nM | 1270 nM |  |
| COc1nc(Cl)nc(Nc2n[nH]c3c2CN(C(=O)N[C@@H]2C[C@H]2c2ccccc2)C3(C)C)n1 (relative stereo) [Example 10, 3-[(4-chloro-6-methoxy-1,3,5-triazin-2-yl)amino]-6,6-dimethyl-N-[trans-2-phenylcyclopropyl]-4,6-dihydropyrrolo[3,4-c]pyrazole-5(1H)-carboxamide] | 120 nM | > 4000 nM |  |
| Cc1nc(Nc2n[nH]c3c2CN(C(=O)N[C@H]2C[C@@H]2c2ccccc2)C3(C)C)c2sccc2n1 (relative stereo) [Example 41, 6,6-dimethyl-3-[(2-methylthieno[3,2-d]pyrimidin-4-yl)amino]-N-[trans-2-phenylcyclopropyl]-4,6-dihydropyrrolo[3,4-c]pyrazole-5(1H)-carboxamide] | 24 nM | 147 nM |  |
| CC1(C)c2[nH]nc(Nc3ccnc(C(F)(F)F)n3)c2CN1C(=O)N[C@H]1C[C@@H]1c1ccccc1 (relative stereo) [Example 30, 6,6-dimethyl-N-[trans-2-phenylcyclopropyl]-3-{[2-(trifluoromethyl)pyrimidin-4-yl]amino}-4,6-dihydropyrrolo[3,4-c]pyrazole-5(1H)-carboxamide] | 80 nM | 968 nM |  |
| CN(C)c1nc(Cl)nc(Nc2n[nH]c3c2CN(C(=O)N[C@@H]2C[C@H]2c2ccccc2)C3(C)C)n1 (relative stereo) [Example 15, 3-{[4-chloro-6-(dimethylamino)-1,3,5-triazin-2-yl]amino}-6,6-dimethyl-N-[trans-2-phenylcyclopropyl]-4,6-dihydropyrrolo [3,4-c]pyrazole-5(1H)-carboxamide] | 90 nM | 500 nM |  |
| CC1(C)c2[nH]nc(Nc3ncnc4sccc34)c2CN1C(=O)N[C@@H]1C[C@H]1c1ccccc1 [Example 50, 6,6-dimethyl-N-[(1R,2S)-2-phenylcyclopropyl]-3-(thieno[2,3-d]pyrimidin-4-ylamino)-4,6-dihydropyrrolo[3,4-c]pyrazole-5(1H)-carboxamide] | 16 nM | 340 nM |  |
| CC1(C)c2[nH]nc(Nc3nc(Cl)nc(Cl)n3)c2CN1C(=O)N[C@@H]1C[C@H]1c1ccccc1 (relative stereo) [Example 9, 3-[(4,6-dichloro-1,3,5-triazin-2-yl)amino]-6,6-dimethyl-N-[trans-2-phenylcyclopropyl]-4,6-dihydropyrrolo[3,4-c] pyrazole-5(1H)-carboxamide] | 270 nM | > 4000 nM |  |
| CN(C)c1nc(Nc2n[nH]c3c2CN(C(=O)NC2C[C@@H]2c2ccccc2)C3(C)C)nc(N2CCC[C@H]2CO)n1 (stereo partly drawn) [Example 23, 3-({4-(dimethylamino)-6-[(2S)-2-(hydroxymethyl)pyrrolidin-1-yl]-1,3,5-triazin-2-yl}amino)-6,6-dimethyl-N-[trans-2-phenylcyclopropyl]-4,6-dihydropyrrolo[3,4-c]pyrazole-5(1H)-carboxamide] | 140 nM | > 4000 nM |  |
| COc1nc(Nc2n[nH]c3c2CN(C(=O)NC2CC2c2ccccc2)C3(C)C)nc(N2CCC[C@H]2C#N)n1 (stereo in doubt) [Example 20, 3-({4-[(2S)-2-cyanopyrrolidin-1-yl]-6-methoxy-1,3,5-triazin-2-yl}amino)-6,6-dimethyl-N-[trans-2-phenylcyclopropyl]-4,6-dihydropyrrolo[3,4-c]pyrazole-5(1H)-carboxamide] |  | 1200 nM | 90 nM |

The next lines start with the values.

| Ki [1, 3] | EC50 [2] | Ki [1] | SMILES |
| --- | --- | --- | --- |
| 38 nM | 78 nM |  | CC1(C)c2[nH]nc(Nc3nc(Cl)nc4ccccc34)c2CN1C(=O)NC1CC1c1ccccc1 (stereo not drawn) [Example 12, 3-[(2-chloroquinazolin-4-yl)amino]-6,6-dimethyl-N-[(trans-2-phenylcyclopropyl]-4,6-dihydropyrrolo[3,4-c]pyrazole-5(1H)-carboxamide] |
| 1.6 nM | < 3.9 nM |  | Cc1nc(Nc2n[nH]c3c2CN(C(=O)O[C@H](CN(C)C)c2ccccc2)C3(C)C)c2sccc2n1 [Example 73, (1S)-2-(dimethylamino)-1-phenylethyl 6,6-dimethyl-3-[(2-methylthieno[3,2-d]pyrimidin-4-yl)amino]-4,6-dihydropyrrolo[3,4-c]pyrazole-5(1H)-carboxylate] |
| 280 nM | 20 nM |  | CN(C)C[C@@H](NC(=O)N1Cc2c(Nc3ncncc3F)n[nH]c2C1(C)C)c1ccccc1 [Example 67, N-[(1S)-2-(dimethylamino)-1-phenylethyl]-3-[(5-fluoropyrimidin-4-yl)amino]-6,6-dimethyl-4,6-dihydropyrrolo[3,4-c]pyrazole-5(1H)-carboxamide] |
| 39 nM | < 3.9 nM |  | COc1ncc(F)c(Nc2n[nH]c3c2CN(C(=O)O[C@H](CN(C)C)c2ccccc2)C3(C)C)n1 [Example 79, (1S)-2-(dimethylamino)-1-phenylethyl 3-[(5-fluoro-2-methoxypyrimidin-4-yl)amino]-6,6-dimethyl-4,6-dihydropyrrolo[3,4-c]pyrazole-5(1H)-carboxylate] |
| 18 nM | 31 nM |  | CC1(C)c2[nH]nc(Nc3ncnc4ccsc34)c2CN1C(=O)N[C@@H]1C[C@H]1c1ccccc1 [Example 51, 6,6-dimethyl-N-[(1R,2S)-2-phenylcyclopropyl]-3-(thieno[3,2-d]pyrimidin-4-ylamino)-4,6-dihydropyrrolo[3,4-c]pyrazole-5(1H)-carboxamide] |
| 2.8 nM | 0.94 nM |  | CN(C)C[C@@H](NC(=O)N1Cc2c(Nc3nc(Cl)nc4ccsc34)n[nH]c2C1(C)C)c1ccccc1 [Example 6, 3-[(2-chlorothieno[3,2-d]pyrimidin-4-yl)amino]-N-[(1S)-2-(dimethylamino)-1-phenylethyl]-6,6-dimethyl-4,6-dihydropyrrolo[3,4-c]pyrazole-5(1H)-carboxamide] |
| 260 nM | 262 nM |  | Cc1cc2c(Nc3n[nH]c4c3CN(C(=O)N[C@@H]3C[C@H]3c3ccccc3)C4(C)C)ncnc2s1 (relative stereo) [Example 35, 6,6-dimethyl-3-[(6-methylthieno[2,3-d]pyrimidin-4-yl)amino]-N-[trans-2-phenylcyclopropyl]-4,6-dihydropyrrolo[3,4-c]pyrazole-5(1H)-carboxamide] |
| 8.8 nM | 1.9 nM |  | CN(C)C[C@@H](OC(=O)N1Cc2c(Nc3ccnc(C#N)n3)n[nH]c2C1(C)C)c1ccccc1 [Example 70, (1S)-2-(dimethylamino)-1-phenylethyl 3-[(2-cyanopyrimidin-4-yl)amino]-6,6-dimethyl-4,6-dihydropyrrolo [3,4-c]pyrazole-5(1H)-carboxylate] |
| 22 nM | 19 nM |  | CN(C)C[C@@H](NC(=O)N1Cc2c(Nc3ncnc4sccc34)n[nH]c2C1(C)C)c1ccccc1 [Example 61, N-[(1S)-2-(dimethylamino)-1-phenylethyl]-6,6-dimethyl-3-(thieno[2,3-d]pyrimidin-4-ylamino)-4,6-dihydropyrrolo[3,4-c]pyrazole-5(1H)-carboxamide] |
